Experimental data reported in patent publication US20250129095A1, “ANNULATED 2-AMINO-3-CYANO THIOPHENES AND DERIVATIVES FOR THE TREATMENT OF CANCER” (Boehringer Ingelheim Int'l GmbH Corp., priority 2021, published 2025).

Legend:
MKN1 cells [1] = experiment: MKN1 CTG proliferation assay (120 h) (gastric cancer, wt amplified), assay 2; format: cell-based; conditions: Homo sapiens, MKN-1
Procedure: (§1) SAS cells (JCRB0260) are dispensed into 384-well plates, flat and clear bottom (Greiner, PNr. 781091) at a density of 300 cells per well in 60 μL DMEM:F12 (Gibco 31330-038)+10% Fetal Calf Serum (HyClone, PNr.: SH30084.03) and incubated at 37° C. in a CO2 incubator overnight The next day, compounds (10 mM stock in DMSO) are added with the ECHO acoustic liquid handler system (Beckman Coulter), including DMSO controls. Plates are incubated for 120 h, and cell viability is measured using CellTiter-Glo luminescent cell viability reagent (Promega product code G7570). Viability (stated as percent of control) is defined as relative luminescence units RLU of each well divided by the RLU of cells in DMSO controls.
(§2) MKN1 cells (JCRB0252) are dispensed into white 384-well plates, flat and white bottom (Perkin Elmer, 6007680) at a density of 500 cells per well in 40 μl RPMI (Gibco, PNr.: 21875034)+10% FCS (HyClone, PNr.: SH30084.03) (assay 1) or into black 384-well plates, flat and clear bottom (Greiner, PNr. 781091) at a density of 200 cells per well in 60 μl RPMI-1640 (Gibco #A10491)+10% FCS (HyClone, PNr.: SH30084.03)+PenStrep (Gibco, PNr.15140-122) (assay 2). […] Compounds (10 mM stock in DMSO) are added at logarithmic dose series using the HP Digital Dispenser D300 (Tecan) (assay 1) or the ECHO acoustic liquid handler system (Beckman Coulter) (assay 2), including DMSO controls and normalizing for added DMSO. Plates are incubated for 120 h, and cell viability is measured using CellTiter-Glo luminescent cell viability reagent (Promega product code G7570). Viability (stated as percent of control) is defined as relative luminescence units RLU of each well divided by the RLU of cells in DMSO controls.

KRAS (G13D)::SOS1 = molecular target: T1, KRAS (G13D)::SOS1 (Homo sapiens, UniProt P01116, C118S/G13D); experiment: KRAS::SOS1 AlphaScreen binding assay, KRAS G13D
T1 construct: KRAS (G13D) 1-169, N-terminal 6His-tag for purification, cleaved off; 6His-tag (N, cleaved yes); TEV cleavage site; made in house
Excerpt: This assay can be used to examine the potency with which compounds according to the invention binding to (mutated) KRAS inhibit the protein-protein interaction between SOS1 and (mutated) KRAS e.g., KRAS WT, KRAS G12C, KRAS G12D, KRAS G12V, KRAS G13D. […] Low IC50 values in this assay setting are indicative of strong inhibition of protein-protein interaction between SOS1 and KRAS:
These assays measure the inhibitory effect of compounds on KRAS mutant protein-protein interactions using the Alpha Screen technology by Perkin Elmer […]
Plates are kept at room temperature in a darkened incubator. After an additional 60 minutes incubation time the signal is measured in a PerkinElmer Envision HTS Multilabel Reader using the AlphaScreen specs from PerkinElmer. […]
As internal control known inhibitors of KRAS mutant::SOS1 interaction can be measured on each compound plate. […]

MKN1 cells [2] = experiment: MKN1 CTG proliferation assay (120 h) (gastric cancer, wt amplified), assay 1; format: cell-based; conditions: Homo sapiens, MKN-1
Procedure: as §1, §2

T1 sequence (P01116 1-169 isoform P01116-2 G13D/C118S): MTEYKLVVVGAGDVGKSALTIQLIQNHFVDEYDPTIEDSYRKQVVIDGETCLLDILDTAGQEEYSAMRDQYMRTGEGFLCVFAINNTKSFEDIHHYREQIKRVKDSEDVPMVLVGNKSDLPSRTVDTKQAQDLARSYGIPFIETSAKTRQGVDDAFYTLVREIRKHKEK

| IC50 (MKN1 cells [1]) [nM] | IC50 (KRAS (G13D)::SOS1) [nM] | IC50 (MKN1 cells [2]) [nM] | Compound |
| --- | --- | --- | --- |
| 109 | – | – | C[C@H](Oc1cc(Oc2cccnc2)nc(-c2onc3c2CCC[C@@]32CCCc3sc(N)c(C#N)c32)n1)[C@@H]1CCCN1C [Example I-2] |
| 108 | 8 | – | C[C@H](Oc1cc(OCC2(N(C)C)COC2)nc(-c2onc3c2CCC[C@@]32CCCc3sc(N)c(C#N)c32)n1)[C@@H]1CCCN1C [Example I-8] |
| 43 | – | – | C[C@H](Oc1cc(Oc2cncnc2)nc(-c2noc3c2CCC[C@@]32CCCc3sc(N)c(C#N)c32)n1)[C@@H]1CCCN1C [II-1] |

More lines, now with the values behind:

| Compound | IC50 (MKN1 cells [1]) [nM] | IC50 (KRAS (G13D)::SOS1) [nM] | IC50 (MKN1 cells [2]) [nM] |
| --- | --- | --- | --- |
| C[C@H](Oc1cc(OCCO)nc(-c2noc3c2CCC[C@@]32CCCc3sc(N)c(C#N)c32)n1)[C@@H]1CCCN1C [II-6] | 90 | – | – |
| C[C@H](Oc1cc(O[C@@H]2CNC2(C)C)nc(-c2noc3c2CCC[C@@]32CCCc3sc(N)c(C#N)c32)n1)[C@@H]1CCCN1C [II-9] | 129 | – | – |
| C[C@H](Oc1cc(OCC2(N(C)C)COC2)nc(-c2noc3c2CCC[C@@]32CCCc3sc(N)c(C#N)c32)n1)[C@@H]1CCCN1C [II-22] | – | 6 | 33 |
| COc1c(OCC2(N(C)C)COC2)nc(-c2noc3c2CCC[C@@]32CCCc3sc(N)c(C#N)c32)nc1O[C@@H](C)[C@@H]1CCCN1C [II-25] | – | 8 | – |
| CO[C@@H]1C[C@@H]([C@H](C)Oc2cc(O[C@@H]3CNC3(C)C)nc(-c3noc4c3CCC[C@@]43CCCc4sc(N)c(C#N)c43)n2)N(C)C1 [II-30] | – | – | 223 |
| C[C@H](Oc1cc(O[C@@H]2CNC2(C)C)nc(-c2noc3c2CCC[C@@]32CCCc3sc(N)c(C#N)c32)n1)[C@@H]1C[C@@H](F)CN1C [II-31] | – | – | 357 |
